Calls of active or inactive are those of the source. The rule behind the calls is not given here. Some results are limits rather than exact numbers.

Sequence of Chaperone protein DnaK (Escherichia coli (strain K12)) (P0A6Y8 whole entry, looked up, the tested form may be a part): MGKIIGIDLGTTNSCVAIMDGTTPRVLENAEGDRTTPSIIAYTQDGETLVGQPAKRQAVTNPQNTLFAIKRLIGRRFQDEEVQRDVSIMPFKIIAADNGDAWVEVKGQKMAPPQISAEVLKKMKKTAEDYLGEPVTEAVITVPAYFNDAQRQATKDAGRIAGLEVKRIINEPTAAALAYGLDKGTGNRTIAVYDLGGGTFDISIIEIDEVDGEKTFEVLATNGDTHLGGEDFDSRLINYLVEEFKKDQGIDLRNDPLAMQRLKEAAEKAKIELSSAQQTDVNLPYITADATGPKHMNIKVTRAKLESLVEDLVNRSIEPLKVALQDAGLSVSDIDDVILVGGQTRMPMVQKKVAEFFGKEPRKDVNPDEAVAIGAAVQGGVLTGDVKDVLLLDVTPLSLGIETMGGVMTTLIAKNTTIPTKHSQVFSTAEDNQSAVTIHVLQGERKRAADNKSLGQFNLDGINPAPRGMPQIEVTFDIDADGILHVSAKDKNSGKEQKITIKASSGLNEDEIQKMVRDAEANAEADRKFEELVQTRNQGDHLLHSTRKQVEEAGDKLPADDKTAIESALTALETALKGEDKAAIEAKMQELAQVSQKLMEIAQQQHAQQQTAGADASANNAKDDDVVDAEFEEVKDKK

This assay has as its target Chaperone protein DnaK (Escherichia coli (strain K12)) (UniProt P0A6Y8). Kind of assay: binders of DnaK substrate-binding domain, biophysical, NMR, chaperone (AID 1033). Conditions: Purified DnaK SBD, NMR ligand binding.
The term Kd denotes the free concentration of one partner at which half of the binding sites on the other are occupied at equilibrium, for simple one-to-one binding. Regarding `COc1ccc2cc1Oc1ccc(cc1)C[C@H]1c3cc(c(OC)cc3CCN1C)Oc1c(OC)c(OC)cc3c1[C@H](C2)N(C)CC3`, the Kd is > 4 mM (inactive).

Consider `NC(=O)CCn1ncc2ccccc21`, for which the Kd was > 4 mM (inactive). In the case of `COC(=O)C1=CCCN(C)C1`, the Kd was > 4 mM (inactive). As to `CC(=O)c1cc2c(cc1O)OC(C)(C)C=C2`, the Kd was > 4 mM (inactive). As for `CC(=O)O[C@H]1C[C@@H](OC(C)=O)C(C)(C)C2CC(=O)[C@]3(C)C(CC[C@@]4(C)[C@H](C(=O)O)OC(=O)C5OC543)[C@]21C` (stereo partly specified), the figure is > 4 mM (inactive); as for `COc1ccc(NC(=O)CCCC(=O)O)c(OC)c1`, > 4 mM (inactive); as for `NCc1ccc2c(c1)CCO2`, > 4 mM (inactive). Take `O=C(NC1=NCCS1)c1cccc(F)c1`: the Kd is > 4 mM (inactive). Consider `O=C1CCC(C(=O)NCc2ccc(Cl)cc2)N1` (stereo unspecified), for which the Kd is > 4 mM (inactive). `CCc1sc(C(=O)NC)cc1Br`: the Kd was > 4 mM (inactive).

With `OC[C@H]1O[C@@H](O[C@H]2[C@H](O)[C@@H](O)[C@@H](O)O[C@@H]2CO)[C@H](O)[C@@H](O)[C@@H]1O`, the Kd is > 4 mM (inactive).

Regarding `O=C(O)c1cc(O)c2c(c1)C(=O)c1cc(O)cc(O)c1C2=O`, the Kd is > 4 mM (inactive). Regarding `Cc1nnsc1C(=O)O`, the Kd was > 4 mM (inactive). Take `O=C(O)c1cccnc1-c1nc2ccccc2s1`: the Kd is > 4 mM (inactive). With `OC/C=C/c1ccc(O)c(O)c1`, the Kd is > 4 mM (inactive). For `COC(=O)c1ccccc1N(C)S(C)(=O)=O`, the Kd was > 4 mM (inactive). As for `Cc1ccc(-c2nc(N)n(C(=O)c3cccnc3)n2)cc1`, the figure is > 4 mM (inactive).

As to `c1cnc(N2CCSCC2)nc1`, the Kd was > 4 mM (inactive). `NCCCCN=C(N)N`: the Kd was > 4 mM (inactive).

With `COc1cccc2onc(N)c12`, the Kd is > 4 mM (inactive).

Regarding `CC(C)(C)c1cc(NC(=O)c2cccnc2)no1`, the Kd was > 4 mM (inactive). Regarding `CC(=O)Nc1cc(C(N)=O)cc(C(N)=O)c1`, the Kd was > 4 mM (inactive). Turning to `Cc1csc2nc(=O)c3ccccc3n12`, the Kd is > 4 mM (inactive).

In the case of `CSc1nc2nc(C)cc(=O)n2[nH]1`, the Kd was > 4 mM (inactive). With `O=C1C2C3C=CC(C3)C2C(=O)N1c1nccs1` (stereo unspecified), the Kd is > 4 mM (inactive).

In the case of `Cc1cc(C)nc(/N=C(/N)N2CCOCC2)n1`, the Kd was > 4 mM (inactive). With `OCc1ccc2nonc2c1`, the Kd is > 4 mM (inactive). As for `O=C(/C=C/c1ccccc1)c1ccc(O)cc1`, the Kd is > 4 mM (inactive). For `c1ccc(-n2nnnc2-n2cnc3ccccc32)cc1` the value was > 4 mM (inactive); for `CC(=O)NC(C)C12CC3CC(CC(C(=O)O)(C3)C1)C2` (stereo unspecified), > 4 mM (inactive); for `O=C1CC(=O)N(c2ccccc2)c2ccccc21`, > 4 mM (inactive). For `Cc1cccc(C)c1N1C(=O)CCC1=O` the value was > 4 mM (inactive); for `COc1cc(-c2coc3cc(OCc4ccccc4)c(OC)c(O)c3c2=O)cc(O)c1OC`, > 4 mM (inactive); for `COc1cccc2c1CCC1=CC(=O)CC[C@@]12C`, > 4 mM (inactive). For the compound `Cc1c(O)c(O)cc2c1CC=C1[C@@]2(C)CC[C@@]2(C)C3C[C@](C)(C(=O)O)CC[C@]3(C)CC[C@]12C` (stereo partly specified), the Kd was > 4 mM (inactive). Consider `Cc1nc2sccn2c1C(=O)O`, for which the Kd was > 4 mM (inactive). As for `Nc1cccc(C(=O)c2ccccc2)c1`, the Kd is > 4 mM (inactive). Consider `O=C(NCCO)c1cc2ccccc2cc1O`, for which the Kd is > 4 mM (inactive).

Regarding `C/C=C/COc1nc2c(c(=O)n(C)c(=O)n2C)n1C`, the Kd is > 4 mM (inactive). In the case of `CC(C)c1ccc(NC(=O)C(N)=O)cc1`, the Kd was > 4 mM (inactive).

Turning to `COC1=CC(=O)C=C(OC)C1=O`, the Kd was > 4 mM (inactive). For `COC(=O)C[C@@H]1C2(C)C(=O)[C@@H](CC3=C4CC(=O)O[C@@H](c5ccoc5)[C@]4(C)CCC32)[C@H](OC(C)=O)C1(C)C` (stereo partly specified), the Kd was > 4 mM (inactive). For the compound `C/C=C(/C)C(=O)O[C@@H]1[C@H](OC(C)=O)[C@@]2(CO)C(CC1(C)C)C1=CCC3[C@@]4(C)CC[C@H](O[C@@H]5O[C@H](C(=O)O)[C@@H](O[C@@H]6O[C@H](CO)[C@@H](O)[C@H](O)[C@H]6O)[C@H](O)[C@H]5O[C@@H]5O[C@H](CO)[C@@H](O)[C@H](O)[C@H]5O)[C@](C)(CO)C4CC[C@@]3(C)[C@]1(C)C[C@H]2O` (stereo partly specified), the Kd is > 4 mM (inactive). For the compound `CC(C)Oc1ccc(C2CC(=O)NNC2=O)cc1` (stereo unspecified), the Kd was > 4 mM (inactive). `N#Cc1cn(CC(=O)N2CCCC2)c2ccccc12`: the Kd is > 4 mM (inactive). Turning to `O=C(O)c1cccc2nsnc12`, the Kd is > 4 mM (inactive). On to `O=C1CC(=O)N(c2ccccc2)C(=O)N1`, for which the Kd is > 4 mM (inactive).

Turning to `Nc1ncnc2c1ncn2CCOc1ccccc1`, the Kd was > 4 mM (inactive). As for `COc1ccc(NC(=O)N2CCCCC2)cc1`, the figure is > 4 mM (inactive); as for `COc1ccc(-c2cc(=O)c3c(O)cc(O[C@@H]4O[C@H](CO[C@H]5O[C@H](C)[C@@H](O)[C@H](O)[C@@H]5O)[C@@H](O)[C@H](O)[C@H]4O)cc3o2)cc1O`, > 4 mM (inactive). With `Cc1ccc(/C=N/n2c(C)nnc2C)cc1`, the Kd is > 4 mM (inactive). For `O=C(O)c1ccc2c(c1)OCCCO2` the value was > 4 mM (inactive); for `O=C(O)Cn1nnnc1-c1ccc(F)cc1`, > 4 mM (inactive). Take `O=C(Nc1ccc2c(c1)CCC2)c1cnccn1`: the Kd is > 4 mM (inactive). As for `Cc1nn(C)c2sc(CO)cc12`, the figure is > 4 mM (inactive); as for `Cc1cc(C)nc(/N=C(/N)N2CCC(C(N)=O)CC2)n1`, > 4 mM (inactive); as for `O=C1CSC(=Nc2cccc(C(=O)O)c2)N1`, > 4 mM (inactive).

Take `O=C(O)c1cc(O)c(O)c(O)c1`: the Kd is > 4 mM (inactive).

For `O=C(/C=C/c1ccc(O)c(O)c1)O[C@@H]1C[C@](O)(C(=O)O)C[C@@H](O)[C@H]1O`, the Kd is > 4 mM (inactive). For `COC(=O)c1cncn1C`, the Kd was > 4 mM (inactive).

Consider `Cc1cccc(N2C(=O)CCC2=O)n1`, for which the Kd was > 4 mM (inactive). Regarding `Cc1ncc(C(=O)O)c(-c2ccccc2)n1`, the Kd is > 4 mM (inactive). Regarding `O=c1/c(=C\c2cccnc2)sc2nc3ccccc3n12`, the Kd is > 4 mM (inactive). For `CCOC(=O)c1ccc(F)c(F)c1` the value was > 4 mM (inactive); for `O=C(O)c1ccc2nsnc2c1`, > 4 mM (inactive). Take `N#CCSc1nnc2ccc3ccccc3n12`: the Kd was > 4 mM (inactive). For the compound `COc1ccccc1C(=O)Nc1ccccn1`, the Kd is > 4 mM (inactive).

In the case of `O=C1CNC(=O)N1c1cccc(Cl)c1`, the Kd was > 4 mM (inactive).

With `CC(C)=CCOc1cc2oc(=O)ccc2cc1O`, the Kd was > 4 mM (inactive). As for `O=C(c1ccco1)N1CCN(c2ccc(Cl)cc2)CC1`, the Kd is > 4 mM (inactive). For `Cc1cc(C(=O)N2CCC3(CC2)OCCO3)cs1`, the Kd was > 4 mM (inactive). Turning to `O=c1ccc2nc3ccccc3c(=O)n2[nH]1`, the Kd was > 4 mM (inactive). For `O=C1OCCC1Sc1nc2ccccc2c(=O)[nH]1` (stereo unspecified), the Kd is > 4 mM (inactive). Take `CC(=O)Nc1nc(C)nc(-c2ccccc2)c1C(C)=O`: the Kd is > 4 mM (inactive).

For the compound `Cc1c(-c2ccccc2)[n+](=O)c(-c2ccco2)c(C)n1[O-]`, the Kd was > 4 mM (inactive). For `O=C1N=C(N2CCOCC2)S/C1=C\c1cccnc1` the value was > 4 mM (inactive); for `COC(=O)c1cncc(C(=O)OC)c1`, > 4 mM (inactive). As for `Oc1ccc(-n2cncn2)cc1`, the figure is > 4 mM (inactive); as for `Cc1nnc(SCc2ccon2)n1-c1ccccc1`, > 4 mM (inactive); as for `O=c1c2ccccc2nc(-c2ccco2)n1-c1nccs1`, > 4 mM (inactive). With `O=C(O)CCC(=O)Nc1ccccn1`, the Kd is > 4 mM (inactive).

For `NC(=O)CSc1ccccn1`, the Kd was > 4 mM (inactive). As for `Cc1cc(C(=O)Nc2nnc(C(F)(F)F)s2)no1`, the Kd is > 4 mM (inactive). Take `O=C(O)CSc1cccc2cccnc12`: the Kd was > 4 mM (inactive). `NC(=O)CC[C@H](N)C(=O)O`: the Kd was > 4 mM (inactive). As for `NCCCCNCCCN`, the figure is > 4 mM (inactive); as for `COc1cccc(-c2nc3ccc(O)cc3c(=O)o2)c1`, > 4 mM (inactive). Consider `O=C(/C=C/c1ccccc1)NC1CCS(=O)(=O)C1` (stereo unspecified), for which the Kd was > 4 mM (inactive).

As to `Cn1nnc2cc(CN)ccc21`, the Kd was > 4 mM (inactive).

As for `CN(C)c1nc(N)nc(Cn2ccnc2)n1`, the Kd was > 4 mM (inactive). As to `Nc1ccc(S(=O)(=O)N2CCCCC2)cc1`, the Kd is > 4 mM (inactive). For `OC1CCNC2CCCCC12` (stereo unspecified) the value was > 4 mM (inactive). As for `CC[C@H]1CN2CCC1C[C@@H]2[C@@H](O)c1ccnc2ccc(OC)cc12` (stereo partly specified), the figure is > 4 mM (inactive); as for `Cc1nnsc1C(=O)Nc1ccccc1[N+](=O)[O-]`, > 4 mM (inactive); as for `Cc1nc(-c2ccccc2)ncc1C(=O)O`, > 4 mM (inactive). For `CCOC(=O)c1c(C)nc2ccccn12` the value was > 4 mM (inactive); for `Cc1cc(NC(=O)CSc2nncn2C)no1`, > 4 mM (inactive); for `COc1cc(NC(=O)c2ccccc2)c(C)cc1N`, > 4 mM (inactive).

For the compound `O=C(NCC1CCNCC1)c1ccccn1`, the Kd is > 4 mM (inactive).

Consider `Cc1ncc(CC(=O)O)s1`, for which the Kd is > 4 mM (inactive).

`COc1ccc(C2=CC(=O)C=CC2=O)cc1`: the Kd was > 4 mM (inactive).

The values above are taken from PubChem BioAssay AID1033 (Sanford-Burnham Center for Chemical Genomics, 2008).
